# Experimental data: patent publication US8952024B2, “Herbicidal pyrimidone derivatives” (E I du Pont de Nemours and Company, priority 2009, dated 2015)
# Assays:
# Assay type in all cases: in vivo
# [1] = system: umbrella sedge (Cyperus difformis); assay: Test B flooded paddy test; conditions: for Plant response rating, Flood, Sedge, Umbrella: 250 g ai/ha, flooded paddy test, visual rating on 0 to 100 scale (0 no effect, 100 complete control) after 13 to 15 days; for Plant response rating, Sedge, Umbrella: Flood (flooded paddy test), 13 to 15 days; for Sedge, Umbrella plant response rating: Flood, 31 g ai/ha, scale 0 to 100 (0 no effect, 100 complete control)
# Source text: (§1) Plant species in the flooded paddy test consisted of rice (Oryza sativa), umbrella sedge (Cyperus difformis), ducksalad (Heteranthera limosa) and barnyardgrass (Echinochloa crus-galli) grown to the 2-leaf stage for testing. At the time of treatment, test pots were flooded with water to 3 cm above the soil surface, treated by application of test compounds directly to the paddy water, and then maintained at that water depth for the duration of the test.
# (§2) Treated plants and controls were maintained in a greenhouse for 13 to 15 days, after which time all treated plants were visually evaluated and compared to controls. Plant response ratings, summarized in Table B, are based on a scale of 0 to 100 where 0 is no effect and 100 is complete control. A dash (-) response means no test result.
# [2] = system: ducksalad (Heteranthera limosa); assay: Test B flooded paddy test; conditions: for Plant response rating, Flood, Ducksalad: 250 g ai/ha, flooded paddy test, visual rating on 0 to 100 scale (0 no effect, 100 complete control) after 13 to 15 days; for Plant response rating, Ducksalad: Flood (flooded paddy test), 13 to 15 days; for Ducksalad plant response rating: Flood, 31 g ai/ha, scale 0 to 100 (0 no effect, 100 complete control)
# Source text: as §1, §2
# rice (Oryza sativa) = assay: Test B flooded paddy test; conditions: for Plant response rating, Flood, Rice: 250 g ai/ha, flooded paddy test, visual rating on 0 to 100 scale (0 no effect, 100 complete control) after 13 to 15 days; for Plant response rating, Rice: Flood (flooded paddy test), 13 to 15 days; for Rice plant response rating: Flood, 31 g ai/ha, scale 0 to 100 (0 no effect, 100 complete control)
# Source text: as §1, §2
# [3] = system: barnyardgrass (Echinochloa crus-galli); assay: Test B flooded paddy test; conditions: for Plant response rating, Flood, Barnyardgrass: 250 g ai/ha, flooded paddy test, visual rating on 0 to 100 scale (0 no effect, 100 complete control) after 13 to 15 days; for Plant response rating, Barnyardgrass: Flood (flooded paddy test), 13 to 15 days; for Barnyardgrass plant response rating: Flood, 31 g ai/ha, scale 0 to 100 (0 no effect, 100 complete control)
# Source text: as §1, §2
# [4] = system: giant foxtail (Setaria faberii); assay: Test A pre-/postemergence plant response; conditions: for Foxtail, Giant plant response rating: visual injury, 0 to 100 scale (0 no effect, 100 complete control), approx. ten days
# Source text: (§3) Seeds of barnyardgrass (Echinochloa crus-galli), large crabgrass (Digitaria sanguinalis), giant foxtail (Setaria faberii), morningglory (Ipomoea spp.), pigweed (Amaranthus retroflexus), velvetleaf (Abutilon theophrasti), wheat (Triticum aestivum) and corn (Zea mays) were planted into a blend of loam soil and sand and treated preemergence with a directed soil spray using test chemicals formulated in a non-phytotoxic solvent mixture which included a surfactant. At the same time these species were also treated with postemergence applications of test compounds formulated in the same manner.
# (§4) Plants ranged in height from two to ten cm and were in the one- to two-leaf stage for the postemergence treatment. Treated plants and untreated controls were maintained in a greenhouse for approximately ten days, after which time all treated plants were compared to untreated controls and visually evaluated for injury. Plant response ratings, summarized in Table A, are based on a 0 to 100 scale where 0 is no effect and 100 is complete control. A dash (-) response means no test result.
# [5] = system: wheat (Triticum aestivum); assay: Test A pre-/postemergence plant response; conditions: for Wheat plant response rating: visual injury, 0 to 100 scale (0 no effect, 100 complete control), approx. ten days
# Source text: as §3, §4
# [6] = system: velvetleaf (Abutilon theophrasti); assay: Test A pre-/postemergence plant response; conditions: for Velvetleaf plant response rating: visual injury, 0 to 100 scale (0 no effect, 100 complete control), approx. ten days
# Source text: as §3, §4
# [7] = system: morningglory (Ipomoea spp.); assay: Test A pre-/postemergence plant response; conditions: for Morningglory plant response rating: visual injury, 0 to 100 scale (0 no effect, 100 complete control), approx. ten days
# Source text: as §3, §4
# [8] = system: pigweed (Amaranthus retroflexus); assay: Test A pre-/postemergence plant response; conditions: for Pigweed plant response rating: visual injury, 0 to 100 scale (0 no effect, 100 complete control), approx. ten days
# Source text: as §3, §4
# corn (Zea mays) = assay: Test A pre-/postemergence plant response; conditions: for Corn plant response rating: visual injury, 0 to 100 scale (0 no effect, 100 complete control), approx. ten days
# Source text: as §3, §4
# [9] = system: barnyardgrass (Echinochloa crus-galli); assay: Test A pre-/postemergence plant response; conditions: for Barnyardgrass plant response rating: visual injury, 0 to 100 scale (0 no effect, 100 complete control), approx. ten days
# Source text: as §3, §4
# [10] = system: large crabgrass (Digitaria sanguinalis); assay: Test A pre-/postemergence plant response; conditions: for Crabgrass, Large plant response rating: visual injury, 0 to 100 scale (0 no effect, 100 complete control), approx. ten days
# Source text: as §3, §4
# [11] = 62 g ai/ha, scale of 0 to 100 where 0 is no effect and 100 is complete control
# [12] = 125 g ai/ha, scale 0 to 100, 0 is no effect, 100 is complete control
# [13] = Postemergence, 125 g ai/ha, 0 to 100 scale where 0 is no effect and 100 is complete control
# [14] = Preemergence, 125 g ai/ha, 0 to 100 scale, 0 = no effect, 100 = complete control
# [15] = Preemergence, 500 g ai/ha, 0 to 100 scale, 0 = no effect, 100 = complete control
smiles,measurement,setting,value
O=C1CCCC(O)=C1C(=O)c1cnc(-c2ccc(F)c(F)c2)n(C2CCCCC2)c1=O [Compound 198],"Plant response rating, Flood, Sedge, Umbrella",[1],80
same,"Plant response rating, Sedge, Umbrella",[1]; [11],20
same,"Plant response rating, Sedge, Umbrella",[1]; [12],80
same,"Sedge, Umbrella plant response rating",[1],20
same,"Plant response rating, Flood, Ducksalad",[2],95
same,"Plant response rating, Ducksalad",[2]; [11],50
same,"Plant response rating, Ducksalad",[2]; [12],85
same,Ducksalad plant response rating,[2],40
same,"Plant response rating, Flood, Rice",rice (Oryza sativa),50
same,"Plant response rating, Rice",rice (Oryza sativa); [11],20
same,"Plant response rating, Rice",rice (Oryza sativa); [12],20
same,Rice plant response rating,rice (Oryza sativa),15
same,"Plant response rating, Flood, Barnyardgrass",[3],35
same,"Plant response rating, Barnyardgrass",[3]; [11],0
same,"Plant response rating, Barnyardgrass",[3]; [12],30
same,Barnyardgrass plant response rating,[3],0
same,"Plant response rating, Foxtail, Giant",[4]; [13],60
same,"Foxtail, Giant plant response rating","[4]; Postemergence, 500 g ai/ha",90
same,"Plant response rating, Foxtail, Giant",[4]; [14],70
same,"Plant response rating, Foxtail, Giant",[4]; [15],70
same,"Plant response rating, Wheat",[5]; [13],0
same,Wheat plant response rating,"[5]; Postemergence, 500 g ai/ha",0
same,"Plant response rating, Wheat",[5]; [14],0
same,"Plant response rating, Wheat",[5]; [15],20
same,"Plant response rating, Velvetleaf",[6]; [13],100
same,Velvetleaf plant response rating,"[6]; Postemergence, 500 g ai/ha",100
same,"Plant response rating, Velvetleaf",[6]; [14],0
same,"Plant response rating, Velvetleaf",[6]; [15],80
same,"Plant response rating, Morningglory",[7]; [13],100
same,Morningglory plant response rating,"[7]; Postemergence, 500 g ai/ha",100
same,"Plant response rating, Morningglory",[7]; [14],0
same,"Plant response rating, Morningglory",[7]; [15],30
same,"Plant response rating, Pigweed",[8]; [13],90
same,Pigweed plant response rating,"[8]; Postemergence, 500 g ai/ha",100
same,"Plant response rating, Pigweed",[8]; [14],10
same,"Plant response rating, Pigweed",[8]; [15],100
same,"Plant response rating, Corn",corn (Zea mays); [13],0
same,Corn plant response rating,"corn (Zea mays); Postemergence, 500 g ai/ha",30
same,"Plant response rating, Corn",corn (Zea mays); [14],0
same,"Plant response rating, Corn",corn (Zea mays); [15],20
same,"Plant response rating, Barnyardgrass",[9]; [13],70
same,Barnyardgrass plant response rating,"[9]; Postemergence, 500 g ai/ha",100
same,"Plant response rating, Barnyardgrass",[9]; [14],0
same,"Plant response rating, Barnyardgrass",[9]; [15],50
same,"Plant response rating, Crabgrass, Large",[10]; [13],70
same,"Crabgrass, Large plant response rating","[10]; Postemergence, 500 g ai/ha",100
same,"Plant response rating, Crabgrass, Large",[10]; [14],10
same,"Plant response rating, Crabgrass, Large",[10]; [15],90
Cc1cccc(-c2ncc(C(=O)C3=C(O)CCCC3=O)c(=O)n2-c2cc(F)ccc2C)c1 [Compound 178],"Plant response rating, Flood, Sedge, Umbrella",[1],95
same,"Plant response rating, Sedge, Umbrella",[1]; [11],85
same,"Plant response rating, Sedge, Umbrella",[1]; [12],95
same,"Sedge, Umbrella plant response rating",[1],55
same,"Plant response rating, Flood, Ducksalad",[2],100
same,"Plant response rating, Ducksalad",[2]; [11],75
same,"Plant response rating, Ducksalad",[2]; [12],100
same,Ducksalad plant response rating,[2],75
same,"Plant response rating, Flood, Rice",rice (Oryza sativa),70
same,"Plant response rating, Rice",rice (Oryza sativa); [11],20
same,"Plant response rating, Rice",rice (Oryza sativa); [12],70
same,Rice plant response rating,rice (Oryza sativa),0
same,"Plant response rating, Flood, Barnyardgrass",[3],80
same,"Plant response rating, Barnyardgrass",[3]; [11],20
same,"Plant response rating, Barnyardgrass",[3]; [12],60
same,Barnyardgrass plant response rating,[3],20
same,"Plant response rating, Foxtail, Giant",[4]; [13],50
same,"Foxtail, Giant plant response rating","[4]; Postemergence, 500 g ai/ha",80
same,"Plant response rating, Foxtail, Giant",[4]; [14],10
same,"Plant response rating, Foxtail, Giant",[4]; [15],50
same,"Plant response rating, Wheat",[5]; [13],0
same,Wheat plant response rating,"[5]; Postemergence, 500 g ai/ha",30
same,"Plant response rating, Wheat",[5]; [14],0
same,"Plant response rating, Wheat",[5]; [15],0
same,"Plant response rating, Velvetleaf",[6]; [13],90
same,Velvetleaf plant response rating,"[6]; Postemergence, 500 g ai/ha",100
same,"Plant response rating, Velvetleaf",[6]; [14],0
same,"Plant response rating, Velvetleaf",[6]; [15],60
same,"Plant response rating, Morningglory",[7]; [13],50
same,Morningglory plant response rating,"[7]; Postemergence, 500 g ai/ha",100
same,"Plant response rating, Morningglory",[7]; [14],0
same,"Plant response rating, Morningglory",[7]; [15],40
same,"Plant response rating, Pigweed",[8]; [13],60
same,Pigweed plant response rating,"[8]; Postemergence, 500 g ai/ha",80
same,"Plant response rating, Pigweed",[8]; [14],0
same,"Plant response rating, Pigweed",[8]; [15],40
same,"Plant response rating, Corn",corn (Zea mays); [13],0
same,Corn plant response rating,"corn (Zea mays); Postemergence, 500 g ai/ha",70
same,"Plant response rating, Corn",corn (Zea mays); [14],0
same,"Plant response rating, Corn",corn (Zea mays); [15],0
same,"Plant response rating, Barnyardgrass",[9]; [13],80
same,Barnyardgrass plant response rating,"[9]; Postemergence, 500 g ai/ha",90
same,"Plant response rating, Barnyardgrass",[9]; [14],0
same,"Plant response rating, Barnyardgrass",[9]; [15],50
same,"Plant response rating, Crabgrass, Large",[10]; [13],50
same,"Crabgrass, Large plant response rating","[10]; Postemergence, 500 g ai/ha",80
same,"Plant response rating, Crabgrass, Large",[10]; [14],10
same,"Plant response rating, Crabgrass, Large",[10]; [15],70
